From patent US9248109B2, “High penetration prodrug compositions of peptides and peptide-related compounds” (priority 2009, dated 2016)
Where a name gives a salt, the structure may show the parent alone. Non-standard residues stand in square brackets, D forms with d. Residues, ends and D or L forms follow the SMILES beside them. *: point of attachment. Arg(NO2) = N=C(NCCC[C@H](N)C(=O)O)N[N+](=O)[O-]; X1 = CCCCO*

Columns and labels:
[1] = tested on: young Sprague Dawley rats; test: Anti-obese activity, transdermal, young female Sprague Dawley rats (second experiment); type: in vivo, rat; settings: for effect on overweight of young rats (in words): 10, 1 or 0.3 mg/kg transdermal twice per day for 30 days; for Food intake (per day & per rat) / Weight (g) (Day 30) / Weight (g) (Day 1): young rats; for Weight (g) (Day 1): baseline
Experimental: (§1) In a second experiment, 40 young female Sprague Dawley (SD) rats (180-225 g) were divided into 4 groups. In group A, 0.2 ml of water was administered to the back of rat (n=10) twice per day for 30 days. In Groups B, C, and D, 10 mg/kg, 1 mg/kg, or 0.3 mg/kg of H-Val-Pro-Gly-Pro-Arg(NO2)—OCH(CH3)2.HCl(SEQ ID NO: 197) in 0.2 ml of water were administered transdermally to the backs of rats (n=10) twice per day for 30 days respectively.
as §1, with “(180-230” for “(180-225”, “H-Val-Pro-Gly-Pro-Arg(diAc)-OCH2CH2CH2CH3.HCl(SEQ” for “H-Val-Pro-Gly-Pro-Arg(NO2)—OCH(CH3)2.HCl(SEQ”, “198)” for “197)”, “days.” for “days respectively.”
as §1, with “rats (182-223” for “rats (180-225”, “of H-Ala-Pro-Gly-Pro-Arg(NO2)—OCH2CH2CH2CH3.HCl(SEQ” for “of H-Val-Pro-Gly-Pro-Arg(NO2)—OCH(CH3)2.HCl(SEQ”, “NO: 199)” for “NO: 197)”, “water was” for “water were”
as §1, with “(185-220” for “(180-225”, “H-Val-Pro-Asp(OEt)-Pro-Arg(NO2)-OCH2CH2CH2CH3.HCl(SEQ” for “H-Val-Pro-Gly-Pro-Arg(NO2)—OCH(CH3)2.HCl(SEQ”, “200)” for “197)”, “days.” for “days respectively.”

obese mice (SLAC/DB/DB) = test: Anti-obese activity, transdermal, obese female DB/DB mice (third experiment); type: in vivo, mouse; settings: for Weight (g) (Day 1) / Blood Glucose Levels (day 1) (mg/dL, no fasting): baseline; for effect on body weights and blood glucose levels of obese mice (in words): 15, 1.5 and 0.5 mg/kg transdermal twice per day for 30 days
Experimental: (§2) In a third experiment, 40 obese female DB/DB mice (SLAC/DB/DB mice, 16 weeks old, 55-60 g) were divided into 4 groups. In group A, 0.1 ml of water was administered to the back of mouse (n=10) twice per day for 30 days. In Groups B, C, and D, 15 mg/kg, 1.5 mg/kg, and 0.5 mg/kg of H-Val-Pro-Gly-Pro-Arg(NO2)-OCH(CH3)2.HCl(SEQ ID NO: 197) in 0.1 ml of water was administered transdermally to the back of mouse (n=10) twice per day for 30 days respectively.
as §2, with “(SLAC/DB/DB) mice (16” for “(SLAC/DB/DB mice, 16”, “H-Val-Pro-Gly-Pro-Arg(diAc)-OCH2CH2CH2CH3.HCl(SEQ” for “H-Val-Pro-Gly-Pro-Arg(NO2)-OCH(CH3)2.HCl(SEQ”, “198)” for “197)”
as §2, with “(SLAC/DB/DB) mice (16” for “(SLAC/DB/DB mice, 16”, “53-61” for “55-60”, “H-Ala-Pro-Gly-Pro-Arg(NO2)—OCH2CH2CH2CH3.HCl(SEQ” for “H-Val-Pro-Gly-Pro-Arg(NO2)-OCH(CH3)2.HCl(SEQ”, “199)” for “197)”
as §2, with “(SLAC/DB/DB) mice (16” for “(SLAC/DB/DB mice, 16”, “53-61” for “55-60”, “H-Val-Pro-Asp(OEt)-Pro-Arg(NO2)-OCH2CH2CH2CH3.HCl(SEQ” for “H-Val-Pro-Gly-Pro-Arg(NO2)-OCH(CH3)2.HCl(SEQ”, “200)” for “197)”

[2] = 0.3 mg/kg transdermal twice per day for 30 days
[3] = 0.3 mg/kg transdermal twice per day
[4] = 1 mg/kg transdermal twice per day for 30 days
[5] = 1 mg/kg transdermal twice per day
[6] = 10 mg/kg transdermal twice per day for 30 days
[7] = 10 mg/kg transdermal twice per day
[8] = 0.5 mg/kg transdermal twice per day for 30 days
[9] = 0.5 mg/kg transdermal twice per day
[10] = 1.5 mg/kg transdermal twice per day for 30 days
[11] = 1.5 mg/kg transdermal twice per day
[12] = 15 mg/kg transdermal twice per day for 30 days
[13] = 15 mg/kg transdermal twice per day

Compound | effect on overweight of young rats (in words) [1] | Food intake (per day & per rat) [1, 2] | Weight (g) (Day 30) [1, 2] | Weight (g) (Day 1) [1, 3] | Food intake (per day & per rat) [1, 4] | Weight (g) (Day 30) [1, 4] | Weight (g) (Day 1) [1, 5] | Food intake (per day & per rat) [1, 6] | Weight (g) (Day 30) [1, 6] | Weight (g) (Day 1) [1, 7] | Weight (g) (Day 30) (obese mice (SLAC/DB/DB); [8]) | Blood Glucose Levels (day 30) (mg/dL, no fasting) (obese mice (SLAC/DB/DB); [8]) | Weight (g) (Day 1) (obese mice (SLAC/DB/DB); [9]) | Blood Glucose Levels (day 1) (mg/dL, no fasting) (obese mice (SLAC/DB/DB); [9]) | Weight (g) (Day 30) (obese mice (SLAC/DB/DB); [10]) | Blood Glucose Levels (day 30) (mg/dL, no fasting) (obese mice (SLAC/DB/DB); [10]) | Weight (g) (Day 1) (obese mice (SLAC/DB/DB); [11]) | Blood Glucose Levels (day 1) (mg/dL, no fasting) (obese mice (SLAC/DB/DB); [11]) | Weight (g) (Day 30) (obese mice (SLAC/DB/DB); [12]) | Blood Glucose Levels (day 30) (mg/dL, no fasting) (obese mice (SLAC/DB/DB); [12]) | further results
CCCCOC(=O)[C@H](CCCNC(=N)N[N+](=O)[O-])NC(=O)[C@@H]1CCCN1C(=O)CNC(=O)[C@@H]1CCCN1C(=O)[C@H](C)N [H-Ala-Pro-Gly-Pro-Arg(NO2)—OCH2CH2CH2CH3.HCl] (HELM PEPTIDE1{A.P.G.P.[N=C(NCCC[C@H](N[*:1])C(=O)[*:2])N[N+](=O)[O-]].[CCCCO[*:1]]}$$$$V2.0) | controlled overweight of rats effectively | 21.3 ± 2.2 | 326.2 ± 4.8 g | 194.1 ± 4.5 g | 20.3 ± 2.7 | 321.7 ± 4.0 g | 192.6 ± 4.1 g | 19.5 ± 2.3 | 305.4 ± 4.7 g | 193.7 ± 4.2 g | 54.7 ± 2.7 g | 159.4 ± 24.4 mg/dL | 58.4 ± 2.9 g | 197.6 ± 28.2 mg/dL | 53.3 ± 3.2 g | 148.4 ± 16.4 mg/dL | 57.1 ± 2.8 g | 199.4 ± 23.7 mg/dL | 51.9 ± 2.7 g | 139.5 ± 15.9 mg/dL | Weight (g) (Day 1) (obese mice (SLAC/DB/DB); [13]): 57.2 ± 2.2 g; Blood Glucose Levels (day 1) (mg/dL, no fasting) (obese mice (SLAC/DB/DB); [13]): 202.4 ± 21.4 mg/dL; effect on body weights and blood glucose levels of obese mice (in words) (obese mice (SLAC/DB/DB)): reduced body weights and blood glucose levels of obese mice effectively
CCCCOC(=O)[C@H](CCCNC(=N)N[N+](=O)[O-])NC(=O)[C@@H]1CCCN1C(=O)[C@H](CC(=O)OCC)NC(=O)[C@@H]1CCCN1C(=O)[C@@H](N)C(C)C [H-Val-Pro-Asp(OEt)-Pro-Arg(NO2)—OCH2CH2CH2CH3.HCl] (H-VPD(OEt)P[Arg(NO2)]-X1) | controlled overweight of rats effectively | 22.7 ± 2.9 | 336.6 ± 5.8 g | 192.1 ± 4.6 g | 21.3 ± 2.1 | 325.4 ± 4.9 g | 193.2 ± 4.7 g | 20.4 ± 2.7 | 315.4 ± 6.7 g | 191.2 ± 5.2 g | 56.7 ± 2.8 g | 171.8 ± 28.4 mg/dL | 58.7 ± 3.3 g | 199.6 ± 31.5 mg/dL | 54.3 ± 2.9 g | 152.4 ± 26.8 mg/dL | 58.8 ± 3.1 g | 203.4 ± 25.8 mg/dL | 52.4 ± 3.4 g | 145.4 ± 25.7 mg/dL | Weight (g) (Day 1) (obese mice (SLAC/DB/DB); [13]): 57.9 ± 3.8 g; Blood Glucose Levels (day 1) (mg/dL, no fasting) (obese mice (SLAC/DB/DB); [13]): 203.4 ± 27.4 mg/dL; effect on body weights and blood glucose levels of obese mice (in words) (obese mice (SLAC/DB/DB)): reduced body weights and blood glucose levels of obese mice effectively
CC(C)OC(=O)[C@H](CCCNC(=N)N[N+](=O)[O-])NC(=O)[C@@H]1CCCN1C(=O)CNC(=O)[C@@H]1CCCN1C(=O)[C@@H](N)C(C)C [H-Val-Pro-Gly-Pro-Arg(NO2)-OCH(CH3)2•HCl, H-Val-Pro-Gly-Pro-Arg(NO2)—OCH(CH3)2.HCl] (HELM PEPTIDE1{V.P.G.P.[N=C(NCCC[C@H](N[*:1])C(=O)[*:2])N[N+](=O)[O-]].[CC(C)O[*:1]]}$$$$V2.0) | controlled overweight of young rats effectively | 21.8 ± 2.7 | 327.2 ± 3.8 g | 195.1 ± 5.5 g | 20.1 ± 2.8 | 323.1 ± 4.5 g | 191.6 ± 4.7 g | 19.8 ± 3.3 | 307.4 ± 5.7 g | 192.7 ± 6.2 g | 54.2 ± 2.9 g | 153.4 ± 26.4 mg/dL | 56.2 ± 2.7 g | 199.7 ± 26.8 mg/dL | 52.3 ± 1.9 g | 142.4 ± 18.7 mg/dL | 57.2 ± 2.1 g | 201.4 ± 23.1 mg/dL | 52.1 ± 2.2 g | 137.4 ± 25.2 mg/dL | Weight (g) (Day 1) (obese mice (SLAC/DB/DB); [13]): 57.7 ± 1.6 g; Blood Glucose Levels (day 1) (mg/dL, no fasting) (obese mice (SLAC/DB/DB); [13]): 206.4 ± 21.8 mg/dL; effect on body weights and blood glucose levels of obese mice (in words) (obese mice (SLAC/DB/DB)): reduced body weights and blood glucose levels of obese mice effectively
H-Val-Pro-Gly-Pro-Arg(diAc)-OCH2CH2CH2CH3.HCl | controlled overweight of young rats effectively | 23.7 ± 2.9 | 346.2 ± 4.8 g | 191.1 ± 4.8 g | 22.1 ± 2.8 | 334.1 ± 4.9 g | 190.6 ± 5.7 g | 20.8 ± 2.8 | 317.4 ± 6.4 g | 191.7 ± 4.6 g | 59.3 ± 3.2 g | 179.4 ± 21.1 mg/dL | 57.9 ± 2.7 g | 196.9 ± 29.8 mg/dL | 58.3 ± 2.9 g | 166.4 ± 20.8 mg/dL | 57.6 ± 3.8 g | 195.4 ± 36.7 mg/dL | 54.7 ± 3.8 g | 152.4 ± 17.9 mg/dL | Weight (g) (Day 1) (obese mice (SLAC/DB/DB); [13]): 56.7 ± 2.7 g; Blood Glucose Levels (day 1) (mg/dL, no fasting) (obese mice (SLAC/DB/DB); [13]): 201.5 ± 24.6 mg/dL; effect on body weights and blood glucose levels of obese mice (in words) (obese mice (SLAC/DB/DB)): reduced body weights and blood glucose levels of obese mice effectively
